{
  "source": "paper PMC3138527",
  "about": "(2011)",
  "assay_type_in_all_cases": "biochemical",
  "key": {"[1]": {"target": "T1, triosephosphate isomerase (Tbb TIM) (Trypanosoma brucei, UniProt P04789)", "T1 sequence (P04789 whole entry)": "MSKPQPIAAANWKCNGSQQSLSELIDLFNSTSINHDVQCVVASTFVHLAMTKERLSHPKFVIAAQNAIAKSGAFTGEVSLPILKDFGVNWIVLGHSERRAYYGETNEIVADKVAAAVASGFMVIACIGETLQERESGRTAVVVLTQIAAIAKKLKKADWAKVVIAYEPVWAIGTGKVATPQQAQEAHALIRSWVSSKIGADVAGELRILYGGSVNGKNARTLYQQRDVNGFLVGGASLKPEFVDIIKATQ", "test": "coupled enzyme assay"}, "[2]": {"target": "T1, triosephosphate isomerase (Tbb TIM)", "test": "1H NMR turnover in D2O"}, "[3]": {"target": "T1, triosephosphate isomerase (Tbb TIM)", "test": "activation of the TIM-catalyzed reaction of [[…]-13C]-GA in D2O followed by 1H NMR"}},
  "data": [
    {"smiles": "O=C[C@H](O)COP(=O)(O)O", "note": "[GAP, (R)-glyceraldehyde 3-phosphate]", "values": [
      {"measurement": "Km", "setting": "[1]", "value": 250, "unit": "µM"}
    ]},
    {"smiles": "O=CCO", "note": "[[1-^13C]-GA, glycolaldehyde]", "values": [
      {"measurement": "1H NMR turnover in D2O; kcat/Km with saturating phosphite", "setting": "[2]", "value": "64 ± 6", "unit": "M⁻¹ s⁻¹"}
    ]},
    {"smiles": "O=[PH](O)O", "note": "[phosphite dianion]", "values": [
      {"measurement": "Kd", "setting": "[3]", "value": "19 ± 3", "unit": "mM"}
    ]}
  ]
}
